# Measured values as given in US6410245B1, “Compositions and methods for detecting ligand-dependent nuclear receptor and coactivator interactions” (priority 1998, dated 2002).
# Tested on: VP16TRα, Gal4-SRC-1, and UAS-TK-luciferase
# Assay: positive two-hybrid system, luciferase reporter, VP16TRα and Gal4-SRC-1
# Type: cell-based
# Settings: CHO cells triple transfected; dose-response curve; FIG. 8
# Text: “Receptor” indicates LBD-TRX, with the LBD exemplified by a genereic nuclear receptor (NR) LBD with bound ligand (L), and the TRX domain represented by the VP16 acidic activation domain (VP16). “Coactivator” indicates a CA-TRX, with exemplary CA species being a portion of the SRC-1 protein, a portion of the CBP protein, or isolated LCD sequences from those proteins, the TRX domain is exemplified as the Gal4 DNA binding domain (DBD). “Corepressor” indicates a CR-TRX, with exemplary CR species being the interacting domains (ID1 or ID2) from SMRT or NcoR fused to the TRX domain as exemplified by Gal4 DNA binding domain (DBD). The reporter polynucleotide is exemplified as a UAS-TK-luciferase reporter containing binding sites for Gal4 DBD. CHO cells were triple transfected with these constructs and hormone added.
# “Receptor” indicates LBD-TRX, with the LBD exemplified by a genereic nuclear receptor (NR) LBD with bound ligand (L), and the TRX domain represented by the VP16 acidic activation domain (VP16). “Coactivator” indicates a CA-TRX, with exemplary CA species being a portion of the SRC-1 protein, a portion of the CBP protein, or isolated LCD sequences from those proteins, the TRX domain is exemplified as the Gal4 DNA binding domain (DBD). […]
smiles,measurement,value
"N[C@@H](Cc1cc(I)c(Oc2ccc(O)c(I)c2)c(I)c1)C(=O)O [T3, triiodothyronine]",reporter (luciferase) response,dose-dependent
